Literature values, collected in patent US20230181603A1, “METHODS OF TREATING CANCER WITH METABOLITE ADJUSTMENTS” (priority 2021, published 2023).

What was measured:
glial precursor cell = conditions: slice cultures

CCCCCCCCCCCCCCCC(=O)OC[C@H](O)[C@H]1OC(=O)C(O)=C1O [Ascorbyl palmitate]
hyaluronidase inhibitor effective concentration (hyaluronidase): low-micromolar range | inhibition of glial precursor cell migration (glial precursor cell): potently inhibits
